Measurements: US11339193B2, “CDP protein secretion inhibitors” (KEZAR LIFE SCIENCES, priority 2018, dated 2022)
Where two headings read alike, the source gives them in different places. Peptide text beside a SMILES is read from it.

Columns and labels:
Type in all cases: cell-based
[1] = tested on: NCI-H929 multiple myeloma cell line; assay: H929 assay (cell viability, Celltiter-Glo); conditions: Homo sapiens, NCI-H929; 48 hours, cell viability; read-out: H929 EC50
Outline: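 Cells plated in RPMI 1640 with 10% FBS and 2 mM glutamine, treated with compound dilutions in DMSO/media. Incubation 48 h at 37° C, 5% CO2. Viability from luciferase luminescence signal.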

[2] = tested on: JJN3 plasma cell leukemia cell line; assay: JJN-3 assay (Alamar blue); conditions: Homo sapiens, 72 h
Outline: (§1)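 For both lines, 5000 cells/well were exposed to compound or a 1% DMSO-medium control for 72 h unless otherwise specified. Signal was normalized to the DMSO control.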

IL7Rss-Gluc = assay: IL7Rss assay
Description: The mature domain of secreted luciferase from Gaussia princeps (GLuc) was cloned into pcDNA5/FRT/TO. The signal sequence plus four amino acids of the mature domain from IL7R ([…]) (SEQ ID NO:6) were cloned upstream of GLuc mature domain and used in transient transfection experiment. HEK-293T T-rex cells were cultured in Dulbecco's modified Eagle's medium with 10% FBS at 5% CO2. Cells were plated 1×10e6 cells per well in a 6-well plate and incubated for 6 h. Cells were transiently transfected with IL7Rss-Gluc using Lipofectamine 2000 (Invitrogen). After overnight incubation, transfected cells were replated in a clear-bottomed, black 96-well plate at a density of 20,000 cells per well. Six hours after plating, the cells were treated with doxycycline (1 μg/ml) and increasing concentrations of the indicated compounds for 24 h. Secreted luciferase in the conditioned media was quantified by luminescence using the BioLux Gaussia Luciferase Assay Kit (New England Biolabs, Ipswich, Mass., USA) and a SpectraMax M5 plate reader (Molecular Devices).

HER3ss-Gluc = assay: HER3ss assay; conditions: HEK-293T T-rex cells, transient transfection, doxycycline, 24 h; read-out: HER3 ss IC50
Outline: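 HEK-293T T-REx cells were transiently transfected with HER3 signal sequence (plus four mature-domain residues) fused upstream of mature Gaussia luciferase. Cells were induced with doxycycline (1 μg/ml) and exposed to increasing compound concentrations for 24 h, then secreted luciferase in the conditioned medium was read by luminescence.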

FLT3ss-Gluc = assay: FLT3ss assay
Description: The mature domain of secreted luciferase from Gaussia princeps (GLuc) was cloned into pcDNA5/FRT/TO. The signal sequence plus four amino acids of the mature domain from FLT3 ([…]) (SEQ ID NO:7) were cloned upstream of GLuc mature domain and used in transient transfection experiment.
HEK-293T T-rex cells were cultured in Dulbecco's modified Eagle's medium with 10% FBS at 5% CO2. Cells were plated 1×10e6 cells per well in a 6-well plate and incubated for 6 h. Cells were transiently transfected with FLT3ss-Gluc using Lipofectamine 2000 (Invitrogen). After overnight incubation, transfected cells were replated in a clear-bottomed, black 96-well plate at a density of 20,000 cells per well. Six hours after plating, the cells were treated with doxycycline (1 μg/ml) and increasing concentrations of the indicated compounds for 24 h. Secreted luciferase in the conditioned media was quantified by luminescence using the BioLux Gaussia Luciferase Assay Kit (New England Biolabs, Ipswich, Mass., USA) and a SpectraMax M5 plate reader (Molecular Devices).

[3] = tested on: U266B1 multiple myeloma cell line; assay: U266 assay (cell viability, Celltiter-Glo); conditions: Homo sapiens, U-266; 48 hours, cell viability
Description: Cells were plated in 384-well tissue culture plates and treated with compound dilutions in DMSO/media. Plates were incubated at 37° C., 5% CO2 for 48 hours. After 48 hours, Celltiter-Glo@ (Promega) was added to each well and luciferase signal was quantified using Tecan Infinite M1000 Pro for cell viability determination.

[4] = tested on: BT474 breast tumor cell line; assay: BT474 assay (Alamar blue); conditions: Homo sapiens, BT-474, 72 h
Outline: as §1

[5] = tested on: VCAMss+10aa/Gaussia Luciferase; assay: VCAM-ss-Gluc assay (constitutively active or Dox induced); conditions: Flp-In 293 T-REx cells, 24 hours
Outline: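 Stable cell lines secreting a VCAM signal sequence+10aa/Gaussia luciferase fusion, expressed either constitutively or under T-REx doxycycline control. Cells plated the day before; compound dilutions in DMSO/media (with doxycycline for the induced line) added and incubated at 37° C, 5% CO2.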

IC50 (IL7Rss-Gluc; HEK-293T T-rex cells, transient transfection, doxycycline, 24 h; read-out: IL7Rss IC50) [µM]	IC50 (FLT3ss-Gluc; HEK-293T T-rex cells, transient transfection, doxycycline, 24 h; read-out: FLT3ss IC50) [µM]	SMILES	EC50 [1] [µM]	EC50 [2] [µM]	IC50 (IL7Rss-Gluc; read-out: IL7Rss IC50; HEK-293T T-rex cells, transient transfection, doxycycline, 24 h) [µM]	IC50 (HER3ss-Gluc) [µM]	IC50 (FLT3ss-Gluc; read-out: FLT3ss IC50; HEK-293T T-rex cells, transient transfection, doxycycline, 24 h) [µM]	EC50 [3] [µM]	EC50 [4] [µM]	IC50 [5] [µM]
–	–	C#CC[C@H]1OC(=O)[C@H](C)N(C)C(C)[C@H](C[C@H](C)CCCC)NC(=O)[C@H](Cc2ccccc2)N(C)C(=O)[C@H](CC(C)C)NC(=O)[C@H](CC(C)C)N(C)C(=O)[C@H](C[C@H](C)CCCC)NC1=O (stereo partly shown) [C-01]	0.454	0.222	0.023	0.04	0.052	23.5	0.73	0.015
0.01	0.032	CC(C)C[C@@H]1NC(=O)[C@H](Cc2cn(Cc3ccccc3)c3ccccc23)N(C)C(=O)[C@H](CC(C)C)NC(=O)[C@H](CC(C)C)N(C)C(=O)[C@H](CC(C)C)NC(=O)[C@@H](CCC#N)OC(=O)[C@H](C)N(C)C1=O [C-16] (HELM PEPTIDE1{L.[meA].[N#CCC[C@@H](O[*:1])C(=O)[*:2]].L.[meL].L.[CN([C@@H](Cc1cn(Cc2ccccc2)c2ccccc12)C(=O)[*:2])[*:1]]}$PEPTIDE1,PEPTIDE1,1:R1-7:R2$$$V2.0)	0.941	0.245	–	0.038	–	13.4	0.745	0.082
